The values that follow are results of earlier work, collected in US20090247553A1, “Highly Pure Paliperidone or a Pharmaceutically Acceptable Salt Thereof Substantially Free of Keto Impurity” (ACTAVIS GROUP PTC EHF, priority 2008, published 2009).

For series [1] the following is noted: powder.

Consider `Cc1nc2n(c(=O)c1CCN1CCC(c3noc4cc(F)ccc34)CC1)CCCC2O` (racemic) [Paliperidone, (±)-3-[2-[4-(6-fluoro-1,2-benzisoxazol-3-yl)-1-piperidinyl]ethyl]-6,7,8,9-tetrahydro-9-hydroxy-2-methyl-4H-pyrido[1,2-a]pyrimidin-4-one], for which the hygroscopicity result in series [1] is listed as “non-hygroscopic”. In addition, the “solubility in 0.1N HCl” value (0.1N HCl) is reported as 2.3 g/100 ml. The solubility in ethanol (ethanol) is listed as 0.076 g/100 ml. Where the note is “water”, the solubility in water is recorded as 0.003 g/100 ml.
